Results on 2 substances are retold here after US20160195533A1, “METHOD FOR SCREENING EMT INHIBITOR” (Medicinal Bioconvergence Research Center, priority 2015, published 2016).

In series [1] the test system is binding between EPRS and Snail1. The series can be described thus: Endogenous immunoprecipitation of EPRS with Snail1 immunoblot in TGF-β1-treated cells. The note with it: A549 cells, TGF-β1 0, 1, 10, 20 ng/ml for 48 hours, cytoplasm and nucleus fractions. The class given is cell-based. On the procedure:
For the detection of endogenous EPRS interaction with Snail1 in nucleus and cytosol, the protein extracts were incubated with protein A agarose (Life technologies) for 30 minutes on ice, and then centrifuged to remove nonspecific IgG binding proteins. The pre-cleared supernatants were mixed with anti-EPRS antibody, incubated the mixture for 2 h at 4° C. with gentle agitation, added protein A agarose for 2 h, and centrifuged. After washing the precipitates with the cold lysis buffer 3-5 times, the precipitates were dissolved in the 2×SDS sample buffer and separated by SDS-PAGE.
The interaction between EPRS and Snail1 were verified at the endogenous level of cytoplasm and nucleus. A549 cells were treated with TGF-β1 of different concentrations (0, 1, 10, 20 ng/ml) for 48 hours, fractionated into the cytoplasm and the nucleus, and then subjected endo-IP using protein A-agarose beads (Invitrogen) and EPRS antibody.
On the technique in general: A western blot detects proteins with antibodies after separation by electrophoresis.

For series [2], the system named is EPRS (A549 cells). Description: Immunoblotting of Snail1 and EMT-related markers after EPRS knock-down using siRNA. It is filed as cell-based, human. The note with it: si-EPRS vs si-control, with or without 10 ng/ml TGF-β1 for 1 hour or 48 hours, cytoplasm and nucleus. On the procedure: Human EPRS gene specific siRNA (si-EPRS) including a sense strand of SEQ ID NO: 23 and an antisense strand of SEQ ID NO: 24, and non-silencing control siRNA (si-control, Catalog Number: 4390843) were purchased from Invitrogen Silencer Select siRNAs products.
Cells were lysed with lysis buffer (20 mM Tris-HCl (pH 8.0) buffer containing 150 mM NaCl, 1% Triton X-100, 1 mM EDTA, 10% glycerol, and protease inhibitor) and collected in a 1.5 ml tube and incubated in 4° C. with gentle agitation for 15 minutes. Then, centrifuged at 15,000 rpm for 20 minutes in 4° C. and supernatants were collected and quantified by using Bradford reagent. After 5×SDS sample buffer was added, each sample were boiled in 100° C. for 5 minutes. Protein samples were separated by SDS-PAGE, transferred to nitrocellulose membrane, and immunoblotted with specific antibodies. The blots were then reacted with horseradish peroxidase-coupled anti-mouse and anti-rabbit (Pierce) IgG secondary antibody. Signals were developed with ECL-PLUS detection reagent (GE healthcare lifesciences).
The antibodies specific to the respective marker proteins, used in the present experiment, are as follows: StrepMAB classic-HRP (IBA), Monoclonal anti-FLAG M2-HRP (Sigma), anti-Snail1 (Cell signaling), anti-Slug (Cell signaling), anti-L13a (Cell signaling), anti-p-Smad2 (Cell signaling), anti-p-Smad3 (Cell signaling), anti-E-cadherin (Cell signaling), anti-N-cadherin (Cell signaling), anti-HDAC1 (Bio vision), anti-β-actin (SCBT), anti-Tubulin (Sigma), anti-HSP90 alpha/β (SCBT), anti-p84 (SCBT), and anti-HA (SCBT). The anti-EPRS antibody was prepared through a conventional procedure by which the EPRS protein represented by SEQ ID NO: 1 was injected into a New Zealand white rabbit to cause an immune response, thereby obtaining an antibody.
It was verified how the reduced EPRS affects Snail1 and EMT progress, through EPRS knock-down experiment using siRNA. For each experimental group, […] cells were treated with si-control or si-EPRS, and treated with or without 10 ng/ml of TGF-β1 for 1 hour or 48 hours. […]

Series [3] relates to A549 cells. Description: Cell migration assay (Transwell) after EPRS knock-down. The class given is cell-based. The conditions noted are these: si-EPRS vs si-control, groups treated with and without TGF-β1 (10 ng/ml, 12 hours). The protocol:
Cell migration assays with A549 cells were performed in Transwell chambers ([…] pore, Costar). Fibronectin (10 μg/ml, BD Biosciences) was coated on the membrane and 700 μl serum-free RPMI was placed in the bottom chamber. After A549 cells were trypsinized and centrifuged at 1,000 rpm for 5 minutes, serum-free RPMI was added to the cells for suspension. Then, 1×10^5 cells were dropped into 24-well Transwell chambers and incubated for 12 h at 37° C. in a CO2 incubator. After washing the membrane twice with PBS, 70% methyl alcohol in PBS was used for cell fixation. PBS washing was performed three times afterwards and hematoxylin (Sigma) was used for cell staining After washing the membrane with distilled water several times, non-migrant cells from the top were removed by using cotton swab. Then, the membranes were mounted with Gel Mount (Biomeda). For counting migrant cells, three randomly picked places were magnified with microscopes in high-power fields (×10, and ×20). All samples were performed in triplicate.
Here, the TGF-β1 treatment groups were treated at a concentration of 10 ng/ml for 12 hours.

Series [4] relates to A549 cells. The series can be described thus: Cell invasion assay (Matrigel invasion chamber) after EPRS knock-down. The note with it: si-EPRS vs si-control, groups treated with and without TGF-β1 (10 ng/ml, 12 hours). The class given is cell-based. On the procedure: Cell invasion assay using A549 cells were conducted in the Matrigel invasion chamber manufactured by BD Co. According to the manufacturer's protocol, the matrigel was rehydrated for two hours and 750 μl of the serum-free RPMI was located in a lower chamber. The A549 cells were trypsinized, and then centrifuged at 1,000 rpm for 5 minutes. The serum-free RPMI was added to the cells to prepare a suspension. Then, 1×10^5 cells were put in the upper chamber, and then incubated in a CO2 incubator at 37° C. for 12 hours. The membrane was washed two times with PBS, and the cells were fixed using PBS containing 70% methyl alcohol. Then, the membrane was washed three times with PBS, and then the cells were stained with hematoxylin (Sigma). The membrane was washed several times with distilled water, and then immobilized cells above were removed using cotton swabs. Then, the membrane was mounted on the Gel Mount (Biomeda). For counting moving cells, three randomly selected regions were magnified through the microscope. All samples were repeatedly tested three times.
Here, the groups treated with TGF-β1 were prepared by treatment at a concentration of 10 ng/ml for 12 hours.

Regarding “TGF-β1: Growth factor purchased from R&D systems, used to induce EMT”, the “binding between EPRS and Snail1 (endo-IP, Snail1 immunoblot)” value in series [1] was “the higher the concentration of TGF-β1, the stronger the binding between EPRS and Snail1”.
On to “si-EPRS: Human EPRS gene specific siRNA including a sense strand of SEQ ID NO: 23 and an antisense strand of SEQ ID NO: 24 (sense CGAUGUCAGCAUUUCCGUUTT; antisense AACGGAAAUGCUGACAUCGTC; chemistry not given here)”, for which, in series [2], the “E-cadherin protein level (immunoblot)” value was “increased”, the “Snail1 protein level (immunoblot)” value is “reduced” and the “p-SMAD3 protein level (immunoblot)” value is “reduced”. For the same substance, in series [3], the cell migration entry is “reduced”. The cell invasion entry in series [4] is listed as “reduced”.
